This is an account of results in PMC6143625, “A high throughput screen for next-generation leads targeting malaria parasite transmission” (Nature Communications, 2018).

In test [1] the test system is P. falciparum 3D7 asexual blood stages. The test can be described thus: Whole-cell time extended asexual growth assay (pLDH). Type of test: cell-based. The following applies: Plasmodium falciparum, 72 h; for IC50: dose response retest, read-out: IC50 (µM) Asex stages; for inhibition at 2 µM: primary screen, read-out: %Inh Asex stages @2uM. Here is the method:
Asexual activity was assayed via Plasmodium lactate dehydrogenase activity (pLDH), a surrogate of asexual parasite growth. […] 2 µM artesunate and DMSO were used as the positive and negative controls, respectively. […] After plate mixing, NBT reduction was measured by absorbance at 650 nm using Envision (Perkin Elmer).

The subject of test [2] is HepG2 human cells. The arrangement: method as in http://dx.doi.org/10.6019/CHEMBL3507680. The following applies: ref http://dx.doi.org/10.6019/CHEMBL3507680; cited from earlier work.

The IC50 is the point on the concentration scale where inhibition reaches its midpoint. For `CCOc1ccc(CN2CCCC(c3cc4ncccc4[nH]3)C2)cc1` (stereo not drawn) [DDD01057418], in test [1], the IC50 was 1.67 µM and the inhibition at 2 µM turned out to be 91.8%. Further, in test [2], the “%Inh HepG2 @10uM” value was 6.95%.
Turning to `COCC(=O)N1CCCC(c2nc(N(C)C)ncc2-c2ccccc2)C1` (stereo not drawn) [DDD01057962], in test [1], the IC50 stood at 5.84 µM and the inhibition at 2 µM is 42.5%. Also, the “%Inh HepG2 @10uM” value in test [2] is on record as 4.41%.
For `Cc1nn(C)cc1C1=NS(=O)(=O)N(C)C(C(=O)Nc2ccc(Cl)cc2)=C1` [DDD01058696], in test [1], the IC50 is 0.456 µM and the inhibition at 2 µM turned out to be 97.9%. For the same compound, in test [2], the “%Inh HepG2 @10uM” value is 1.32%.
Consider `Cc1nn(C)cc1C1=NS(=O)(=O)N(C)C(C(=O)Nc2ccc(Br)cc2)=C1` [DDD01058697], for which, in test [1], the half-inhibitory concentration (IC50) worked out at 0.366 µM and the inhibition at 2 µM amounted to 98%. Also, in test [2], the “%Inh HepG2 @10uM” value was 0.0552%.
Regarding `Cl.Fc1ccc(F)c(CN2CCC(c3cc4ncccc4cn3)CC2)c1` [DDD01058752], in test [1], the concentration for half-maximal inhibition (IC50) came to 1.79 µM and the inhibition at 2 µM worked out at 62.6%. In addition, the “%Inh HepG2 @10uM” value in test [2] is given as 4.59%.
As for `Cl.Fc1cccc(CN2CCC(c3cc4ncccc4cn3)CC2)c1F` [DDD01058754], in test [1], the IC50 was determined as 1.64 µM and the inhibition at 2 µM was found to be 33.2%. For the same compound, the “%Inh HepG2 @10uM” value in test [2] is reported as 4.71%.
`COc1ccc(C)cc1CN1CCC(c2cc3ncccc3cn2)CC1.Cl` [DDD01058767]: in test [1], the IC50 stood at 0.853 µM and the inhibition at 2 µM worked out at 97.7%. Further, the “%Inh HepG2 @10uM” value in test [2] is 105.03%.
Take `Cc1cc(CN2CCc3nc(-c4ccncc4)nc(O)c3CC2)c(C)s1` [DDD01058881]: in test [1], the IC50 turned out to be 2.2 µM and the inhibition at 2 µM turned out to be 77.5%. Further, in test [2], the “%Inh HepG2 @10uM” value is -7.80%.
On to `CN(C)CCN(C)C(=O)Cn1cccc2cc(-c3ccc(F)cc3)nc1-2` [DDD01059044], for which, in test [1], the IC50 was found to be 1.29 µM and the inhibition at 2 µM came to 97%. For the same compound, in test [2], the “%Inh HepG2 @10uM” value was 4.32%.
On to `CCN1c2ccc(-c3cncn3CC(=O)NC(C)(C)C)cc2CC1C.Cl` (stereo not drawn) [DDD01059258], for which, in test [1], the IC50 is 2.95 µM and the inhibition at 2 µM is 82.1%. Moreover, in test [2], the “%Inh HepG2 @10uM” value is -7.81%.
`c1ccc(-c2cc(CNCCN3CCCC3)c3nnnn3c2)cc1` [DDD01059599]: in test [1], the IC50 was 1.55 µM and the inhibition at 2 µM is 79.4%. Besides, in test [2], the “%Inh HepG2 @10uM” value is on record as -3.47%.
Turning to `COc1ccc(F)c(CN(CCCn2ccnc2)Cc2ccc(C)s2)c1.O=C(O)CC(O)(CC(=O)O)C(=O)O` [DDD01059675], in test [1], the IC50 stood at 8.49 µM and the inhibition at 2 µM is 33.8%. In addition, the “%Inh HepG2 @10uM” value in test [2] is 45.48%.
On to `CN(CCCOc1ccccc1)C(=O)c1csc(-c2nnc[nH]2)n1` [DDD01061692], for which, in test [1], the half-inhibitory concentration (IC50) is 2.03 µM and the inhibition at 2 µM worked out at 34.8%. Further, in test [2], the “%Inh HepG2 @10uM” value is given as -5.84%.
Take `Clc1ccc(C2(CNC3=NCCN3)CC2)cc1.I` [DDD01067441]: in test [1], the IC50 was determined as 1.95 µM and the inhibition at 2 µM turned out to be 40.6%. The “%Inh HepG2 @10uM” value in test [2] is reported as 10.02%.
In the case of `COc1cc(C)sc1C(=O)NCCNc1ccccc1` [DDD01067535], in test [1], the half-inhibitory concentration (IC50) came out at 2.4 µM and the inhibition at 2 µM was 41.9%. The “%Inh HepG2 @10uM” value in test [2] is recorded as 11.25%.
In the case of `COc1cc2nc(NCc3ccc(C)nc3)nc(N)c2cc1OC` [DDD01069328], in test [1], the IC50 is 2.24 µM and the inhibition at 2 µM turned out to be 58%. Further, in test [2], the “%Inh HepG2 @10uM” value is on record as -5.25%.
On to `Clc1cccc(CNC2CCN(CCc3ccncc3)CC2)c1` [DDD01069722], for which, in test [1], the IC50 amounted to 2.28 µM and the inhibition at 2 µM was found to be 57.5%. In test [2], the “%Inh HepG2 @10uM” value was 0.53%.
`COc1ccccc1CN(C)C(=O)CN1CC(n2nc(C)cc2C)C1` [DDD01071519]: in test [1], the half-inhibitory concentration (IC50) stood at 2.5 µM and the inhibition at 2 µM is 44.4%. Further, the “%Inh HepG2 @10uM” value in test [2] is -2.12%.
Regarding `COc1ccc(C(=O)NCCCOC(C)c2ccccc2)c(OC)c1` (stereo not drawn) [DDD01071935], in test [1], the half-maximal inhibitory concentration (IC50) was found to be 2.68 µM and the inhibition at 2 µM came to 41.6%. Also, the “%Inh HepG2 @10uM” value in test [2] was -11.10%.
For `CCC(=O)NCC(c1ccc(SC)cc1)N1CCc2sccc2C1` (stereo not drawn) [DDD01071943], in test [1], the IC50 was found to be 2.03 µM and the inhibition at 2 µM came to 64.5%. Moreover, in test [2], the “%Inh HepG2 @10uM” value is -8.32%.
For `CN(C)c1ccnc(N2CCC(NCCOc3ccccc3)CC2)n1` [DDD01072965], in test [1], the IC50 stood at 7.83 µM and the inhibition at 2 µM was determined as 30.8%. In test [2], the “%Inh HepG2 @10uM” value was 19.60%.
Consider `CCOCC1CCN(C(=O)Nc2ccc3c(c2)CCCN3C)C1` (stereo not drawn) [DDD01073381], for which, in test [1], the IC50 was 1.9 µM and the inhibition at 2 µM worked out at 31.9%. Also, in test [2], the “%Inh HepG2 @10uM” value is listed as -10.40%.
Regarding `COc1cccc(CNc2cc(C)nc(-c3ccncc3)n2)c1OC` [DDD01073393], in test [1], the IC50 was 4.85 µM and the inhibition at 2 µM is 40.5%. For the same compound, in test [2], the “%Inh HepG2 @10uM” value is on record as -6.44%.
Consider `O=C(c1ccccc1)C1CCN(Cc2cc3c(cc2O)CCC3)CC1` [DDD01073482], for which, in test [1], the concentration for half-maximal inhibition (IC50) was determined as 1.75 µM and the inhibition at 2 µM stood at 48.9%. Moreover, in test [2], the “%Inh HepG2 @10uM” value is 33.89%.
Regarding `CC1CCN(c2ccnc3ccc(Br)cc23)CC1` [DDD01075547], in test [1], the IC50 came out at 9.1 µM and the inhibition at 2 µM is 35.9%. The “%Inh HepG2 @10uM” value in test [2] is reported as 2.00%.
On to `Cc1cnc(NCc2ccc(S(=O)(=O)N(C)C(C)C)cc2)nc1C` [DDD01077176], for which, in test [1], the half-maximal inhibitory concentration (IC50) was found to be 3.18 µM and the inhibition at 2 µM amounted to 42.2%. For the same compound, the “%Inh HepG2 @10uM” value in test [2] is reported as -11.10%.
In the case of `N#Cc1c(Cl)nsc1NCCCN1C(=O)COc2ccccc21` [DDD01077687], in test [1], the IC50 was found to be 3.47 µM and the inhibition at 2 µM came out at 39.1%. Moreover, the “%Inh HepG2 @10uM” value in test [2] is reported as 8.75%.
For the compound `COc1ccc(Oc2cc(CN)ccn2)cc1` [DDD01078308], in test [1], the IC50 came to 6.7 µM and the inhibition at 2 µM was 30.1%. Moreover, the “%Inh HepG2 @10uM” value in test [2] is 2.32%.
As to `NC(=O)CN1CCC(Nc2ccnc3ccc(Cl)cc23)CC1` [DDD01078433], in test [1], the IC50 was 1.24 µM and the inhibition at 2 µM was found to be 82%. In addition, in test [2], the “%Inh HepG2 @10uM” value was -1.05%.
In the case of `Cc1cc(=O)n2nc(Oc3ccc(Cl)c(C)c3)sc2n1` [DDD01078480], in test [1], the IC50 came to 3.34 µM and the inhibition at 2 µM worked out at 42%. Moreover, the “%Inh HepG2 @10uM” value in test [2] is -6.83%.
For the compound `COc1c(C)cnc(CN(C)C2CCCCC2)c1C` [DDD01078822], in test [1], the concentration for half-maximal inhibition (IC50) worked out at 5.74 µM and the inhibition at 2 µM stood at 35.1%. Also, in test [2], the “%Inh HepG2 @10uM” value was 8.25%.
Regarding `CCOCc1ccc(CNC2=NCCCN2)cc1.I` [DDD01079448], in test [1], the IC50 worked out at 1.58 µM and the inhibition at 2 µM stood at 40.1%. Besides, the “%Inh HepG2 @10uM” value in test [2] was -2.49%.
With `Cc1ccc(CNC2CCN(CCc3ccncc3)CC2)cc1C` [DDD01080013], in test [1], the IC50 came out at 1.81 µM and the inhibition at 2 µM was 77%. Moreover, the “%Inh HepG2 @10uM” value in test [2] is recorded as 1.32%.
On to `COc1cccc(CN(C)C(=O)CN2CC(n3nc(C)cc3C)C2)c1` [DDD01080719], for which, in test [1], the IC50 amounted to 2.29 µM and the inhibition at 2 µM was 49.9%. In test [2], the “%Inh HepG2 @10uM” value is recorded as -1.82%.
Consider `CCS(=O)(=O)N1CCC2(CC1)CN(CC1CCOC1)c1ccccc12.O=C(O)C(F)(F)F` (stereo not drawn) [DDD01082339], for which, in test [1], the IC50 is 7.55 µM and the inhibition at 2 µM is 46%. In test [2], the “%Inh HepG2 @10uM” value is given as 25.95%.
